Calls of active or inactive are those of the source. The rule behind the calls is not given here.

Data on 1 molecule can be found in ChEMBL document CHEMBL5512613, “Design and synthesis of novel 3-amino-5-phenylpyrazole derivatives as tubulin polymerization inhibitors targeting the colchicine-binding site” (Eur J Med Chem, 2024).

Data set [1] addresses Tubulin beta (Homo sapiens) (UniProt P68371+Q9H4B7+Q13509+P04350+Q3ZCM7+P07437+Q13885+Q9BVA1+Q9BUF5+A6NNZ2). Put plainly: Binding affinity to beta-tubulin (unknown origin) assessed as decrease in beta-tubulin/EBI adduct formation at 0.2 to 25 uM incubated for 2 hrs followed by incubation with EBI for 1.5 hrs by EBI competition based western blot analysis. It counts as protein assay. The following applies: dose 0.2-25 µM, time 3.5 hrs.

The test system of data set [2] is MCF7. The data set can be described thus: Induction of cell cycle arrest in human MCF7 cells assessed as proportion of cells at G2 phase at 25 nM incubated for 6 hrs by PI staining based flow cytometry (reference value: 14.4%). Type of data set: functional.
Data set [3] relates to MCF7. The data set can be described thus: Induction of apoptosis in human MCF7 cells assessed as increase in cleaved caspase-9 protein expression at 6.25 to 50 nM incubated for 24 hrs by western blot analysis. Type of data set: functional, cell-based. The following applies: dose 6.25-50 nM. A general note: In western blotting, separated proteins are transferred to a membrane and probed.

Data set [4] deals with MCF7. The data set can be described thus: Induction of cell cycle arrest in human MCF7 cells assessed as increase in cyclin B1 protein expression at 6.25 to 50 nM incubated for 24 hrs by western blot analysis. It counts as functional, cell-based. The following applies: dose 6.25-50 nM.
In the next data set the test system is A549. The data set can be described thus: Inhibition of cell migration in human A549 cells assessed as decrease in number of cells passing through membrane at 6.25 to 50 nM incubated for 24 hrs by transwell assay. It counts as functional, cell-based. The following applies: dose 6.25-50 nM.
The subject of data set [5] is MCF7. Put plainly: Induction of cell cycle arrest in human MCF7 cells assessed as increase in CDK7 protein expression at 6.25 to 50 nM incubated for 24 hrs by western blot analysis. It counts as functional, cell-based. The following applies: dose 6.25-50 nM.
Data set [6] deals with MCF7. The data set can be described thus: Induction of cell cycle arrest in human MCF7 cells assessed as proportion of cells at S phase at 25 nM incubated for 12 hrs by PI staining based flow cytometry (reference value: 21.1%). Type of data set: functional.
In data set [7] the test system is MCF7. The data set can be described thus: Induction of apoptosis in human MCF7 cells assessed as increase in Bim protein expression at 6.25 to 50 nM incubated for 24 hrs by western blot analysis. It counts as functional, cell-based. The following applies: dose 6.25-50 nM.
The test system of data set [8] is MCF7. Put plainly: Antitumor activity against human MCF7 cells xenografted in BALB/c mouse assessed as inhibition of tumor growth by measuring decrease in tumor weight at 5 mg/kg, ip administered every 3 days for 21 days. It counts as functional. The following applies: MCF7, 504 h, time 21 day, read-out: TGI. (A xenograft is tissue or cells of one species grown in another, often human tumour cells in immunodeficient mice.)

In data set [9] the test system is MCF7. Put plainly: Induction of apoptosis in human MCF7 cells assessed as decrease in Bcl-2 protein expression at 6.25 to 50 nM incubated for 24 hrs by western blot analysis. The following applies: dose 6.25-50 nM. Type of data set: functional, cell-based.
A short description of data set [10]: Toxicity against BALB/c mouse xenografted with human MCF7 cells assessed as body weight changes at 5 to 20 mg/kg, ip administered every 3 days for 21 days. It counts as organism-based. The following applies: in vivo, 504 h, dose 5-20 mg/kg, time 21 day.
Data set [11] relates to MCF7. Put plainly: Induction of cell cycle arrest in human MCF7 cells assessed as proportion of cells at G1 phase at 25 nM incubated for 6 hrs by PI staining based flow cytometry (reference value: 64.5%). Type of data set: functional. A general note: In flow cytometry, cells or beads pass a laser one at a time.
The target of a further data set is Tubulin (Homo sapiens) (UniProt P68371+Q9H4B7+P0DPH7+P68366+Q13509+Q71U36+P04350+Q3ZCM7+P07437+P68363+Q9BQE3+Q6PEY2+Q13885+Q9BVA1+Q9BUF5). Put plainly: Displacement of [3H]colchicine from tubulin (unknown origin) at 1 uM incubated for 2 hrs by scinitillation proximity assay. Type of data set: protein-complex assay.

As for `COc1cc(C(=O)n2nc(N)cc2-c2ccc(C)cc2)cc(OC)c1OC`, the outcome (in data set [1]; with MCF7 [3]; in the data set on MCF7 [4]; with MCF7 [5]; in the data set on MCF7 [7]; with MCF7 [9]) was Active. In addition, the Activity is 46.7% in the data set on MCF7 [2], 22.9% in the data set with MCF7 [6], “Non-Toxic” in [10] and 31.3% with MCF7 [11]. Also, the inhibition result with A549 was “Active”. Further, in the data set on MCF7 [8], the inhibition in vivo at 5 mg/kg was determined as 27%. Also, the inhibition at Tubulin (Homo sapiens) worked out at 68.4%.

A word on the inhibition: it is the share of the control response that was lost under treatment.
